Measured values from ChEMBL document CHEMBL4351015, “Design, synthesis and biological evaluation of 3-(imidazo[1,2-a]pyrazin-3-ylethynyl)-2-methylbenzamides as potent and selective pan-tropomyosin receptor kinase (TRK) inhibitors” (Eur J Med Chem, 2019).

Key:
[1] = target: BDNF/NT-3 growth factors receptor (Homo sapiens, UniProt Q16620); assay: Inhibition of recombinant human His-tagged TrkB catalytic domain (526 to 838 residues) expressed in baculovirus expression system using tyr 01 as substrate incubated for 1 hr by Z'-Lyte assay
Chain of BDNF/NT-3 growth factors receptor (Q16620 whole entry, the tested form may be a part): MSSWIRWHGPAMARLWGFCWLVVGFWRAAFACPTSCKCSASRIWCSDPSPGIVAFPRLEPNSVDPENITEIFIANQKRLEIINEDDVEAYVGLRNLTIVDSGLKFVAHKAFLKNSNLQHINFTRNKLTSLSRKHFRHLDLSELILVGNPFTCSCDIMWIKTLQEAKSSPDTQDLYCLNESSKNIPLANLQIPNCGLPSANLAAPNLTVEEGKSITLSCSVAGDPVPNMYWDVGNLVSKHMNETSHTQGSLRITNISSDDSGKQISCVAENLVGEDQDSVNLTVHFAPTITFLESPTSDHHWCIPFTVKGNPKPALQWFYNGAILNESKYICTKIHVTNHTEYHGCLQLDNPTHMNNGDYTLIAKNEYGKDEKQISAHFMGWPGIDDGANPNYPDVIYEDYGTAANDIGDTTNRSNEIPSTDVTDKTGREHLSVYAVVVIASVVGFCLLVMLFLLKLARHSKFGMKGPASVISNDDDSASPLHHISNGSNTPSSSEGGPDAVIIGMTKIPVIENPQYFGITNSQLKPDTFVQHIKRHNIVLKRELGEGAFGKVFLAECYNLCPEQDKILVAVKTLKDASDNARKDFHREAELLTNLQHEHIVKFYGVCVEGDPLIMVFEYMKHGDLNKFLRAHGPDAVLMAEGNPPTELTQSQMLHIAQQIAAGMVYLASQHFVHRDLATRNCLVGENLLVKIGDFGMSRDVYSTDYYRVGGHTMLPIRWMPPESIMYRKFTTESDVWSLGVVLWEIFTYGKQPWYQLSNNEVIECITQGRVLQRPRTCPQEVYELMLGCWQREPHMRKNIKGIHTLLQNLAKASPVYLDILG

[2] = target: Tyrosine-protein kinase ABL1 (Homo sapiens, UniProt P00519); assay: Inhibition of recombinant full length human His-tagged ABL1 expressed in baculovirus infected insect cells using tyr 02 as substrate incubated for 2 hr by Z'-Lyte assay
Chain of Tyrosine-protein kinase ABL1 (P00519 whole entry, the tested form may be a part): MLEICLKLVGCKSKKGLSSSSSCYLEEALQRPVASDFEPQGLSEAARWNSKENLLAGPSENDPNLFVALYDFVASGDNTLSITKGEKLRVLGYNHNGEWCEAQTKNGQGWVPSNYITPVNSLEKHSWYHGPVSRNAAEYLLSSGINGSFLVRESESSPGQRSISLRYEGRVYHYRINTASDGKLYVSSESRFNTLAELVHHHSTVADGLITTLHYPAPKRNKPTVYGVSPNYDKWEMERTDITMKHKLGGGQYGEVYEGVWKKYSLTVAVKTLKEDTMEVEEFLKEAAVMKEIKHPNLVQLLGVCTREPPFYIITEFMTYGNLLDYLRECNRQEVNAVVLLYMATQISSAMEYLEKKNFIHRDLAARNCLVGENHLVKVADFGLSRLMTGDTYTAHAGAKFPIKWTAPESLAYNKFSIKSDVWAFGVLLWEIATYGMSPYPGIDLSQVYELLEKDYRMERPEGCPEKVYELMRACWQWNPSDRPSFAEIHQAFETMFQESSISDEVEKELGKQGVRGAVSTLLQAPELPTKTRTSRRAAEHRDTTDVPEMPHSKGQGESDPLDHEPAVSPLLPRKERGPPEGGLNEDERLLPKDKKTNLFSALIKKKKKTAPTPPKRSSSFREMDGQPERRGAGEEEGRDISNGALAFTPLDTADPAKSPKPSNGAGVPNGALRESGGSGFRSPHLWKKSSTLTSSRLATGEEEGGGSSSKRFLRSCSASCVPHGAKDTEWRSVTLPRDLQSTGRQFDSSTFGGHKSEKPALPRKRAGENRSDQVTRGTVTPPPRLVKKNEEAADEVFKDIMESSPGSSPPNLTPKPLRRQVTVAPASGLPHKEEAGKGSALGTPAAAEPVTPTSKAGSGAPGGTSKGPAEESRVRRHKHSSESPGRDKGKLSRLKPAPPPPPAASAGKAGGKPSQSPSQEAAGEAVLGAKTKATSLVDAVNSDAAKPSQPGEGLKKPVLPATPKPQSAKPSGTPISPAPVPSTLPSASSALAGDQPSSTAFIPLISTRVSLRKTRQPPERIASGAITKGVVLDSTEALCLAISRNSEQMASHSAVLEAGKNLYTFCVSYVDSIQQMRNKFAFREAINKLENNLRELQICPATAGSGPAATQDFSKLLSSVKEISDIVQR

[3] = target: High affinity nerve growth factor receptor (Homo sapiens, UniProt P04629); assay: Inhibition of recombinant human His-tagged TrkA catalytic domain (441 to 796 residues) expressed in baculovirus expression system using tyr 01 as substrate incubated for 1 hr by Z'-Lyte assay
Chain of High affinity nerve growth factor receptor (P04629 whole entry, the tested form may be a part): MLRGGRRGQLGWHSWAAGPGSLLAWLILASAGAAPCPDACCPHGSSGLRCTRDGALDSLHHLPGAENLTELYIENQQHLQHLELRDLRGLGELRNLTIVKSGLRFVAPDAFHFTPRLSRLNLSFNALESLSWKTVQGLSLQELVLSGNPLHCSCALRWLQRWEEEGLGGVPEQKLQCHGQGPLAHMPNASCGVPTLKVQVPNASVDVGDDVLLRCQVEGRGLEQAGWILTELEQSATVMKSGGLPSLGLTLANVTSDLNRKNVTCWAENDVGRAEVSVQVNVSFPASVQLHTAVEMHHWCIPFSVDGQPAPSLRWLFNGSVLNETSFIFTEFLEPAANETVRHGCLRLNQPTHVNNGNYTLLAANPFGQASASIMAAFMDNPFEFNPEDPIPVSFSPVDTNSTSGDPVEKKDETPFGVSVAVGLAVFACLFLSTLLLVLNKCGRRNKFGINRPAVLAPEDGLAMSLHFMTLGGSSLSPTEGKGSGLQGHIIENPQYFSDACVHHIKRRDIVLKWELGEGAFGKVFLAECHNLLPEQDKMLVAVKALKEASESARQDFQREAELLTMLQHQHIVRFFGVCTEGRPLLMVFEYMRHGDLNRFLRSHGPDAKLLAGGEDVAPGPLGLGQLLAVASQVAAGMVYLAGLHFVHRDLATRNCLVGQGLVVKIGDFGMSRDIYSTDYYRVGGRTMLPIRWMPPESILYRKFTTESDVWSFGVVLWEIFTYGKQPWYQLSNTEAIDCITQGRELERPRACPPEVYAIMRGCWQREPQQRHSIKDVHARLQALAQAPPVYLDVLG

[4] = target: NT-3 growth factor receptor (Homo sapiens, UniProt Q16288); assay: Inhibition of recombinant human His-tagged TrkC cytoplasmic domain (510 to 825 residues) expressed in baculovirus using tyr 01 as substrate incubated for 1 hr by Z'-Lyte assay
Chain of NT-3 growth factor receptor (Q16288 whole entry, the tested form may be a part): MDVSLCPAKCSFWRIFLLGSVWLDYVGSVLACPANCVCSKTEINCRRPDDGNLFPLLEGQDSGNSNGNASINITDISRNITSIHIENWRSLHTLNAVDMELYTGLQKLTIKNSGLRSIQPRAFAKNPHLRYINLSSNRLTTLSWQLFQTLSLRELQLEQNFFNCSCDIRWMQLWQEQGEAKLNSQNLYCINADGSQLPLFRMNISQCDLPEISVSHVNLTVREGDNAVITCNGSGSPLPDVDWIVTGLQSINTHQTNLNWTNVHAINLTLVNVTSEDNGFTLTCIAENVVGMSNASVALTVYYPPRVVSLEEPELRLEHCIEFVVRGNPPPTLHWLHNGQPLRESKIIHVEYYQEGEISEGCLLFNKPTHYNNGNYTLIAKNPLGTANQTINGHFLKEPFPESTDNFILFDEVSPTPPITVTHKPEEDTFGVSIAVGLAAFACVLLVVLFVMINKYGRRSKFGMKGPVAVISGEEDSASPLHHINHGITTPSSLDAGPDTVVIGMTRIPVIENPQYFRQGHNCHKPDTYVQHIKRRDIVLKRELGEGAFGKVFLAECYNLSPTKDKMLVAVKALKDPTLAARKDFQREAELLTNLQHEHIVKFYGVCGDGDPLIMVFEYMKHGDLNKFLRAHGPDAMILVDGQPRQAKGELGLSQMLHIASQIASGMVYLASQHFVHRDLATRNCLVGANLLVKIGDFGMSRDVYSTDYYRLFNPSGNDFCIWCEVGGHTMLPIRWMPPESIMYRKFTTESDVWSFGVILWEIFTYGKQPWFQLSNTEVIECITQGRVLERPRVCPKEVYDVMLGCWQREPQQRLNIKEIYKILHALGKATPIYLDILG

Row | SMILES | IC50 [1] [nM] | IC50 [2] [nM] | IC50 [3] [nM] | IC50 [4] [nM]
1 | Cc1c(C#Cc2cnc3cnc(-c4ccc(N)cc4)cn23)cccc1C(=O)Nc1cc(CN2CCN(C)CC2)cc(-c2ccccc2)c1 | 24.2 | > 1000 | 7.34 | 
2 | CCc1cc(CN2CCN(C)CC2)cc(NC(=O)c2cccc(C#Cc3cnc4cnc(-c5ccc(N)cc5)cn34)c2C)c1 | 9.3 | > 1000 | 3.56 | 
3 | COc1c(C#Cc2cnc3cnccn23)cccc1C(=O)Nc1cc(CN2CCN(C)CC2)cc(C(F)(F)F)c1 | > 1000 | > 1000 | > 1000 | 
4 | Cc1cc(C#Cc2cnc3cnccn23)cc(C(=O)Nc2cc(CN3CCN(C)CC3)cc(C(F)(F)F)c2)c1 | 178 | 449 | 132 | 
5 | CC(C)c1c(C#Cc2cnc3cnccn23)cccc1C(=O)Nc1cc(CN2CCN(C)CC2)cc(C(F)(F)F)c1 | > 1000 | > 1000 | > 1000 | > 1000
6 | Cc1c(C#Cc2cnc3cnccn23)cccc1C(=O)Nc1cc(CN2CCN(C)CC2)cc(C(F)(F)F)c1 | 38.3 | > 1000 | 39.8 | 
7 | Cc1c(C#Cc2cnc3cnc(-c4ccncc4)cn23)cccc1C(=O)Nc1cc(CN2CCN(C)CC2)cc(C(F)(F)F)c1 | 43.5 | > 1000 | 28.8 | 
8 | Cc1c(C#Cc2cnc3cnc(-c4ccc(N)cc4)cn23)cccc1C(=O)Nc1cc(CN2CCN(C)CC2)cc(C(C)(C)C)c1 | 15.6 | > 1000 | 6.4 | 
9 | CN1CCN(Cc2cc(NC(=O)c3cccc(C#Cc4cnc5cnccn45)c3)cc(C(F)(F)F)c2)CC1 | 43.9 | 33.3 | 41.6 | 
10 | Cc1ccc(C(=O)Nc2cc(CN3CCN(C)CC3)cc(C(F)(F)F)c2)cc1C#Cc1cnc2cnccn12 | 9.37 |  | 8.24 | 
